Laboratory results taken from PubChem BioAssay AID248 (DTP/NCI, 2004).
Values joined by “and” are separate entries in the source; they are usually repeats but may differ in a detail not shown here. Identical values can stand only once. Inconclusive results and toxic doses are left out. No stated cut-off is given here; in the data, active means T/C of 150% or more; inactive means T/C below 125%.

System: L1210 leukemia ip in BDF1 mice, survival T/C
Experiment: NCI In Vivo Anticancer Drug Screen. Data for tumor model L1210 Leukemia (intraperitoneal) in B6D2F1 (BDF1) mice
Conditions: endpoint: mean survival time, higher = longer survival
Method in brief: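 Mice bearing the transplanted tumor received compound or vehicle. Survival of the treated group was divided by that of the vehicle-treated control group to give the ratio.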

[1] = dose: 12.5 mg/kg/injection, schedule: Q01DX009 (ip), vehicle: Klucel (hydroxypropylcellulose) (HPC)
[2] = dose: 25.0 mg/kg/injection, schedule: Q01DX009 (ip), vehicle: Klucel (hydroxypropylcellulose) (HPC)
[3] = dose: 50.0 mg/kg/injection, schedule: Q01DX009 (ip), vehicle: Klucel (hydroxypropylcellulose) (HPC)
[4] = dose: 100.0 mg/kg/injection, schedule: Q01DX001 (ip), vehicle: Klucel (hydroxypropylcellulose) (HPC)
[5] = dose: 200.0 mg/kg/injection, schedule: Q01DX001 (ip), vehicle: Klucel (hydroxypropylcellulose) (HPC)
[6] = dose: 100.0 mg/kg/injection, schedule: Q04DX003 (ip), vehicle: saline
[7] = dose: 200.0 mg/kg/injection, schedule: Q04DX003 (ip), vehicle: saline

Measured: T/C

O=C1NC(c2ccc3ccccc3c2)Nc2ccccc21 (stereo not given)
inactive: dose: 100.0 mg/kg/injection, schedule: Q04DX003 (ip), vehicle: Klucel (hydroxypropylcellulose) (HPC) 103 % of control | dose: 200.0 mg/kg/injection, schedule: Q04DX003 (ip), vehicle: Klucel (hydroxypropylcellulose) (HPC) 107 % of control | dose: 400.0 mg/kg/injection, schedule: Q04DX003 (ip), vehicle: Klucel (hydroxypropylcellulose) (HPC) 105 % of control

COc1ccccc1OCCOCCN(C)C1CCCCC1
inactive: [1] 93 % of control | [2] 94 % of control | dose: 25.0 mg/kg/injection, schedule: Q04DX002 (ip), vehicle: Klucel (hydroxypropylcellulose) (HPC) 102 % of control | [3] 96 % of control | dose: 50.0 mg/kg/injection, schedule: Q04DX002 (ip), vehicle: Klucel (hydroxypropylcellulose) (HPC) 105 % of control

N#[N+]c1ccc(Br)cc1-c1nc(N)c2cc(Br)ccc2n1
inactive: dose: 50.0 mg/kg/injection, schedule: Q01DX001 (ip), vehicle: Klucel (hydroxypropylcellulose) (HPC) 94 % of control | [4] 105 % of control | [5] 105 % of control

O=C(O)C1C(C(=O)O)C2C=CC1C21CCCC1 (stereo not given)
inactive: dose: 75.0 mg/kg/injection, schedule: Q01DX001 (ip), vehicle: saline 97 % of control | dose: 150.0 mg/kg/injection, schedule: Q01DX001 (ip), vehicle: saline 97 % of control | dose: 300.0 mg/kg/injection, schedule: Q01DX001 (ip), vehicle: saline 95 % of control

CCCCCCCCCCCCN=Cc1cc(Cl)ccc1O
inactive: dose: 222.0 mg/kg/injection, schedule: Q01DX Z (ip), vehicle: methylcellulose (MC) 95 % of control | dose: 333.0 mg/kg/injection, schedule: Q01DX Z (ip), vehicle: methylcellulose (MC) 102 % of control | dose: 500.0 mg/kg/injection, schedule: Q01DX Z (ip), vehicle: methylcellulose (MC) 102 % of control

Cc1ccc2c(c1)CCCN2C
inactive: dose: 50.0 mg/kg/injection, schedule: Q01DX009 (ip), vehicle: saline 96 % of control | dose: 100.0 mg/kg/injection, schedule: Q01DX009 (ip), vehicle: saline 95 % of control | [6] 100 % of control | [7] 94 % of control

O=C(Cc1cccc2ccccc12)N/N=C/c1ccccc1O
inactive: dose: 25.0 mg/kg/injection, schedule: Q01DX009 (ip), vehicle: saline with Tween-80 86 % of control | dose: 50.0 mg/kg/injection, schedule: Q01DX009 (ip), vehicle: saline with Tween-80 93 % of control | dose: 100.0 mg/kg/injection, schedule: Q01DX009 (ip), vehicle: saline with Tween-80 100 % of control and 89 % of control

O=C(Nc1ccc(S(=O)(=O)Nc2ncccn2)cc1)c1ccc(C(=O)Nc2ccc(S(=O)(=O)Nc3ncccn3)cc2)cc1
inactive: dose: 50.0 mg/kg/injection, schedule: Q01DX015 (ip), vehicle: methylcellulose (MC) 100 % of control | dose: 100.0 mg/kg/injection, schedule: Q01DX015 (ip), vehicle: methylcellulose (MC) 103 % of control | dose: 200.0 mg/kg/injection, schedule: Q01DX015 (ip), vehicle: methylcellulose (MC) 97 % of control | dose: 400.0 mg/kg/injection, schedule: Q01DX015 (ip), vehicle: methylcellulose (MC) 106 % of control

Nc1nc(N)c(CCCOc2ccc(C(=O)O)cc2)c(N)n1
inactive: [1] 95 % of control | [2] 100 % of control | [3] 93 % of control

ClCCN(CCCl)c1ccc(/C=N/N2CCN(/N=C/c3ccc(N(CCCl)CCCl)cc3)CC2)cc1
inactive: dose: 100.0 mg/kg/injection, schedule: Q01DX001 (ip), vehicle: carboxymethylcellulose (CMC) 97 % of control | dose: 200.0 mg/kg/injection, schedule: Q01DX001 (ip), vehicle: carboxymethylcellulose (CMC) 92 % of control | dose: 400.0 mg/kg/injection, schedule: Q01DX001 (ip), vehicle: carboxymethylcellulose (CMC) 106 % of control

NC1=NCN(c2ccc(OCCOc3ccc([N+](=O)[O-])cc3)cc2)C(N)=N1
inactive: [4] 107 % of control | [5] 102 % of control | dose: 400.0 mg/kg/injection, schedule: Q01DX001 (ip), vehicle: Klucel (hydroxypropylcellulose) (HPC) 97 % of control

O=C(COc1ccccc1)NCc1ccccc1
inactive: [6] 94 % of control | [7] 92 % of control | dose: 400.0 mg/kg/injection, schedule: Q04DX003 (ip), vehicle: saline 92 % of control
